According to patent publication US5037822A, “1-arylsulphonyl-2-pyrrolidinethione or 1-arylsulphonyl-2-piperidinethione derivatives, process for the preparation thereof their application as medicinal products and compositions containing them” (Roussel-Uclaf, priority 1989, dated 1991):
Read-outs that look alike come from different tables or passages of the source.

What was measured:
[1] = test system: isolated guinea pig ileum; experiment: Agonist action on isolated guinea pig ileum; assay type: cell-based; settings: Cavia porcellus, read-out: Agonist action pD2 (converted)
Procedure: (§1) The interaction of the compounds with different receptors was assessed on isolated guinea pig ileum according to the following method.
(§2) Guinea pig ileum segments measuring 2.5-3 cm were washed and immediately suspended in a bath containing 10 ml of Tyrode's solution at 37° C. aerated with a mixture of oxygen (95%) and carbon dioxide (5%). After a stabilization period of at least 30 minutes, the contractions were recorded, maintaining the preparation under constant tension of 1 g using a gauge connected to a polygraph. The agonist action was assessed by leaving the compound in contact with the isolated tissue for a period necessary for expressing the maximal contraction; the preparation was then washed with Tyrode's solution. The next dose was added to the bath only after the preparation had returned to its base line. As a reference product, arecoline was employed. The antagonist action was assessed on contractions induced by acetylchloine (1×10^-6 M), histamine (1×10^-5 M) and barium chloride (2×10^-4 M). Atropine, diphenhydramine and papaverine were employed as reference products. The contact time before adding the agonist was one minute.
(§3) For each compound, the dose-response curves are obtained with 4 to 6 different concentrations and 3 to 5 independent tests. The agonist activity is expressed by pD2 (negative logarithm of the dose which produces 50% of the maximum effect). The antagonist activity is expressed by IC50 (concentration inhibiting 50% of the maximal response).

[2] = test system: isolated guinea pig ileum, contractions induced by acetylcholine; experiment: Antagonist action on acetylcholine-induced contractions of isolated guinea pig ileum; assay type: cell-based; settings: Cavia porcellus, read-out: Antagonist to ACh, IC50
Procedure: as §1, §2, §3

[3] = test system: cholinomimetic effects induced by carbachol; experiment: In vivo anticholinergic action: inhibition of carbachol-induced cholinomimetic effects in mice; design: species or system CD1 male mice; settings: for ED50 / ED (1 C): Mus musculus, ip; for ED (1 C): read-out: Body temperature: dose increasing by 1° C. the hypothermic effect induced by the cholinergic agent
Procedure: The anticholinergic activity of the compounds was determined by assessing the capacity to inhibit the cholinomimetic effects induced by carbachol. Atropine sulphate was employed as a reference product.
CD1 male mice weighing 25 to 30 g were used. They were distributed in groups of 6 animals and treated intraperitoneally with scalar doses of the products or 0.25% Methocel for the controls. 12 animals were used for each dose. 30 minutes after administration of the compounds, the mice were injected subcutaneously with 1 mg/kg of carbachol dissolved in physiological saline.
Each animal was examined 30 minutes after the injection of carbachol to assess the presence of diarrhoea, salivation and eye watering; in addition, the body temperature was measured by means of a thermocouple inserted 1.5 cm into the rectum.
For each compound, we have determined and recorded in the following table the dose capable of inhibiting the appearance of the carbachol-induced cholinometric symptoms in 50% of the animals, and of increasing by 1° C. the hypothermic effect induced by the cholinergic agent.

Muscarinic receptor 1 = target: T1, Muscarinic receptor 1 (Rattus norvegicus, UniProt P08482); experiment: Binding to muscarinic receptor 1 ([3H]pirenzepine); settings: 0.25 nM [3H]pirenzepine, rat cortex homogenate, pH 7.4, 60 min, 25° C.; read-out: Affinity for M1 muscarinic receptor, IC50
T1 construct: cortices removed from the brains of male rats; tissue Iffa Credo (animals); host or cells: cerebral cortex of male rats weighing 150 to 200 g, homogenate
T1 sequence (P08482 1-460): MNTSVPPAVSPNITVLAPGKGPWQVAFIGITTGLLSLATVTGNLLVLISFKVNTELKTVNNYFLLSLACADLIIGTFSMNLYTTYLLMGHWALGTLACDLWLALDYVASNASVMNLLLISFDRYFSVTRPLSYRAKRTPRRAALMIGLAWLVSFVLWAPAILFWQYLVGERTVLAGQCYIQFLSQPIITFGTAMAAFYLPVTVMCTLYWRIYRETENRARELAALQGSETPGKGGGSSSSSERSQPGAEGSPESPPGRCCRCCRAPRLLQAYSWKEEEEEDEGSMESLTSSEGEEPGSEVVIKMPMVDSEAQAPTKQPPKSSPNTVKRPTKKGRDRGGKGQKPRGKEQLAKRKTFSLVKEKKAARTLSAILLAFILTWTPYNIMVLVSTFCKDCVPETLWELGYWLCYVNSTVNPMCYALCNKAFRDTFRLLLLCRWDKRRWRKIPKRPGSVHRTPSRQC
Procedure: Preparation of this is carried out from cortices removed from the brains of male rats weighing 150 to 200 g (Iffa Credo), ground in a Polytron in a 10 mM Na/K buffer pH 7.4. After incubation (0.5 ml aliquots of homogenate) for 60 minutes at 25° C. in the presence of 0.25 nM [^3 H]pirenzepine, either alone, or with the test product, or with an excess of 10^-5 M pirenzepine (to determine the non-specifically bound radioactivity), the incubates are cooled and filtered.
The filtration is performed on Whatman GF/C filters prewashed in a 0.05% strength solution of polyethylenimine. The filters are rinsed with 3×5 ml of 10 mM Na/K phosphate buffer pH 7.4 and the measurements are then performed by liquid scintillation.
(§4) The results are expressed as an IC50 (concentration needed to inhibit by 50% the specifically bound radioactivity).

Muscarinic receptor 2 = experiment: Binding to muscarinic receptor 2 ([3H]quinuclidinyl benzylate); settings: 0.3 nM [3H]quinuclidinyl benzylate, rat brain, pH 7.5, 60 min, 25° C.; read-out: Affinity for M2 muscarinic receptor, IC50
Procedure: The preparation is performed from brains of male rats weighing 150 to 200 g (Iffa Credo).
The brains are ground (Teflon-glass) in 0.32M sucrose solution. The homogenate is centrifuged for 10 minutes at 1,000 g (0°-4° C.).
The supernatant obtained is collected and centrifuged at 30,000 g for 15 minutes (0°-4° C.).
The pellet is resuspended in 50 mM Tris buffer pH 7.5 and the new homogenate is centrifuged again at 30,000 g for 15 minutes (0°-4° C.).
After removal of the supernatant, the pellets may be used immediately or stored for up to 1 month at -30° C.
For an experiment, the pellets are first thawed, if necessary, at room temperature and resuspended using a Dounce in 50 mM Tris buffer pH 7.5. 2 ml aliquots are incubated for 60 minutes at 25° C. in the presence of 0.3 nM [^3 H]quinuclidinyl benzylate, either alone, or with the test product, or with 10^-5 M benzatropine to determine the non-specifically bound radioactivity.
At the end of the incubation period, the incubate tubes are cooled to 4° C. and filtered rapidly on Whatman GF/C filters. The filters are rinsed with 3×5 ml of 50 mM Tris buffer pH 7.5 and the measurements are then performed by liquid scintillation (Henry I. Yamamura, Solomon H. Snyder, Proc. Nat. Acad. Sc. (1974) 71, No. 5, 1725-1729).
as §4

[4] = test system: isolated guinea pig ileum, contractions induced by histamine; experiment: Antagonist action on histamine-induced contractions of isolated guinea pig ileum; assay type: cell-based; settings: Cavia porcellus; histamine 1×10^-5 M, contact time one minute, 37° C.; read-out: Antagonist to Histam., IC50
Procedure: as §1
as §2, with “The antagonist action was assessed on contractions induced by acetylchloine (1×10^-6 M), histamine (1×10^-5 M) and barium chloride (2×10^-4 M). Atropine, diphenhydramine and papaverine were employed as reference products.” left out
as §3

[5] = test system: isolated guinea pig ileum, contractions induced by barium chloride; experiment: Antagonist action on barium chloride-induced contractions of isolated guinea pig ileum; assay type: cell-based; settings: Cavia porcellus, read-out: Antagonist to BaCl2, IC50
Procedure: as §1, §2, §3

[6] = acetylcholine 1×10^-6 M, contact time one minute, 37° C.
[7] = barium chloride 2×10^-4 M, contact time one minute, 37° C.
[8] = negative logarithm of the dose producing 50% of the maximum effect, 37° C.
[9] = 30 min before carbachol 1 mg/kg s.c., mice
[10] = 30 min before carbachol 1 mg/kg s.c., mice, read-out: Dose inhibiting carbachol-induced diarrhoea in 50% of the animals
[11] = 30 min before carbachol 1 mg/kg s.c., mice, read-out: Dose inhibiting carbachol-induced eye watering in 50% of the animals
[12] = 30 min before carbachol 1 mg/kg s.c., mice, read-out: Dose inhibiting carbachol-induced salivation in 50% of the animals

For `COC(=O)C1=CCCN(C)C1` [Arecoline, arecoline, reference compound], the EC50 [1] was 209 nM.

With `CN1[C@@H]2CC[C@H]1C[C@@H](OC(=O)C(CO)c1ccccc1)C2` (stereo partly shown) [Atropine, reference compound] the IC50 [2] was 9.5 nM, the ED50 ([3]; read-out: Dose inhibiting carbachol-induced diarrhoea in 50% of the animals) was 0.04 mg/kg and the ED50 ([3]; read-out: Dose inhibiting carbachol-induced eye watering in 50% of the animals) was 0.05 mg/kg. The ED50 ([3]; read-out: Dose inhibiting carbachol-induced salivation in 50% of the animals) was 0.06 mg/kg.

For `C[N+](C)(C)CCOC(N)=O` [Carbachol, carbachol, reference compound], the “cholinomimetic symptoms induced by carbachol” value ([3]; 1 mg/kg s.c., control mice) was “induced diarrhoea, salivation and eye watering in all the control mice” and the “decrease in rectal temperature induced by carbachol” value ([3]; 1 mg/kg s.c., control mice) was “approximately 2.5 °C”.

With `CCN(CC)c1ccc(S(=O)(=O)N2CCCC2=S)cc1` [Example 1, 1-[4-(Diethylamino)benzenesulphonyl]-2-pyrrolidinethione] the IC50 (Muscarinic receptor 1) was 43 nM, the IC50 (Muscarinic receptor 2) was 2200 nM and the IC50 [2, 6] was 570 nM. It also gave an IC50 [4] greater than 10000 nM, an IC50 [5, 7] greater than 10000 nM and an EC50 [1, 8] greater than 10000 nM. It also gave an ED (1 C) [3, 9] greater than 50 mg/kg, an ED50 [3, 10] of 5 mg/kg and an ED50 [3, 11] greater than 50 mg/kg. The ED50 [3, 12] was greater than 50 mg/kg.

Compound `CCN(CC)c1ccc(S(=O)(=O)N2CCCCC2=S)cc1` [Example 2, 1-[4-(diethylamino)benzenesulphonyl]-2-piperidinethione] has an IC50 (Muscarinic receptor 1) of 73 nM, an IC50 (Muscarinic receptor 2) of 1900 nM and an IC50 [2, 6] of 340 nM. The IC50 [4] was greater than 10000 nM, the IC50 [5, 7] was greater than 10000 nM and the EC50 [1, 8] was greater than 10000 nM. It also gave an ED (1 C) [3, 9] greater than 50 mg/kg, an ED50 [3, 10] of 8 mg/kg and an ED50 [3, 11] greater than 50 mg/kg. It also gave an ED50 [3, 12] greater than 50 mg/kg.

In the case of `O=S(=O)(c1ccc(N2CCCCC2)cc1)N1CCCC1=S` [Example 3, 1-[4-(1-piperidyl)benzenesulphonyl]-2-pyrrolidinethione], the IC50 (Muscarinic receptor 1) is reported as 25 nM, the IC50 (Muscarinic receptor 2) is reported as 650 nM and the IC50 [2, 6] is reported as 2600 nM. The IC50 [5, 7] was greater than 10000 nM, the EC50 [1, 8] was greater than 10000 nM and the ED (1 C) [3, 9] was greater than 50 mg/kg. It also gave an ED50 [3, 10] of 3 mg/kg, an ED50 [3, 11] greater than 50 mg/kg and an ED50 [3, 12] greater than 50 mg/kg.

With `O=S(=O)(c1ccc(N2CCCCC2)cc1)N1CCCCC1=S` [Example 4, 1-[4-(1-Piperidyl)benzenesulphonyl]-2-piperidinethione] the IC50 (Muscarinic receptor 1) was 30 nM, the IC50 (Muscarinic receptor 2) was 580 nM and the IC50 [2, 6] was 3600 nM. It also gave an IC50 [5, 7] greater than 10000 nM, an EC50 [1, 8] greater than 10000 nM and an ED (1 C) [3, 9] greater than 50 mg/kg. The ED50 [3, 10] was 7 mg/kg, the ED50 [3, 11] was greater than 50 mg/kg and the ED50 [3, 12] was greater than 50 mg/kg.

For `O=S(=O)(c1ccc(N2CCCCCC2)cc1)N1CCCC1=S` [Example 5, 1-[4-(1-Hexahydroazepinyl)benzenesulphonyl]-2-pyrrolidinethione], the IC50 (Muscarinic receptor 1) was 10 nM, the IC50 (Muscarinic receptor 2) was 120 nM and the IC50 [2, 6] was 280 nM. For the same compound, the IC50 [5, 7] was greater than 10000 nM, the EC50 [1, 8] was greater than 10000 nM and the ED (1 C) [3, 9] was 12 mg/kg. It also gave an ED50 [3, 10] of 0.6 mg/kg, an ED50 [3, 11] greater than 50 mg/kg and an ED50 [3, 12] of 15 mg/kg.

For `O=S(=O)(c1ccc(N2CCCCCC2)cc1)N1CCCCC1=S` [Example 6, 1-[4-(1-Hexahydroazepinyl)benzenesulphonyl]-2-piperidinethione], the IC50 (Muscarinic receptor 1) was 12 nM, the IC50 (Muscarinic receptor 2) was 230 nM and the IC50 [2, 6] was 190 nM. The IC50 [5, 7] was greater than 10000 nM, the EC50 [1, 8] was greater than 10000 nM and the ED (1 C) [3, 9] was greater than 50 mg/kg. For the same compound, the ED50 [3, 10] was 2 mg/kg, the ED50 [3, 11] was greater than 50 mg/kg and the ED50 [3, 12] was 40 mg/kg.

For `COc1ccc(Cc2nccc3cc(OC)c(OC)cc23)cc1OC` [Papaverine, papaverine, reference compound], the IC50 [5] was 45000 nM.
